This note sets out measurements from US8580301B2, “Psychostimulant containing pharmaceutical composition” (PEJO Iserlohn Heilmittel und Diaet GmbH & Co. KG, priority 2004, dated 2013).

Where a name gives a salt, the structure may show the parent alone.

The nature of data set [1]: Solubility of methylphenidate hydrochloride in aqueous media / Ph. Eur. buffer solutions. In kind it is physicochemical.
A short description of data set [2]: Stability in alkaline solution. In kind it is physicochemical.

On to `COC(=O)C(c1ccccc1)C1CCCCN1` (stereo not drawn) [methylphenidate hydrochloride], for which, in data set [1] (60 mg in 250 ml hydrochloric acid pH 1.2, or 250 ml potassium dihydrogen phosphate buffer pH 4.6 or 6.8), the “solubility of the maximum daily dose of 60 mg in buffer solutions of the European Pharmacopoeia” value was “dissolves easily”. Also, in data set [1] (aqueous media), the water solubility result is listed as “extremely water soluble”. The “stability in alkaline solution” value in data set [2] is “hydrolysis occurs”.
